From the NIST ThermoML archive (doi:10.1021/je2013878)
± gives the expanded uncertainty stated by the source.

assay: activity coefficient (dimensionless); of the first substance listed, at infinite dilution; xn = mol fraction of the nth substance listed; conditions: 313.15 K; 101 kPa; Liquid; Chromatography; x1 = 0

activity coefficient	SMILES
179 ± 19	CC(C)CC=O [3-methylbutanal] + O
2160 ± 230	C=CC(O)CCCCC (configuration not stated) [1-octen-3-ol] + O
601 ± 63	CCCCCC=O [hexanal] + O
160 ± 17	CCC(=O)C(C)=O [2,3-pentanedione] + O
49 ± 5	C=CC(O)CC (configuration not stated) [1-penten-3-ol] + O
71 ± 7	CCOC(C)=O [ethyl acetate] + O

SMILES	activity coefficient
O=Cc1ccccc1 [benzaldehyde] + O	570 ± 60
